Measurements as given in patent publication US6420163B1, “Pharmacological targeting of mRNA cap formation” (priority 1998, dated 2002).

What was measured:
[1] = molecular target: T1, human cap methyltransferase (Hcm1p) (Homo sapiens, UniProt O43148); assay type: biochemical
T1 construct: His-tag (pET16b leader) (N); made in house; host or cells: Escherichia coli BL21(DE3)

[2] = molecular target: T2, Mce1(1-210)p RNA triphosphatase domain (Mus musculus, UniProt O55236); settings: 0.5 mM divalent cation; cited from earlier work
T2 construct: The N-terminal portion of Mce1p from residues 1-210 is an autonomous RNA triphosphatase domain; made in house; host or cells: bacteria
T2 sequence (O55236 1-210): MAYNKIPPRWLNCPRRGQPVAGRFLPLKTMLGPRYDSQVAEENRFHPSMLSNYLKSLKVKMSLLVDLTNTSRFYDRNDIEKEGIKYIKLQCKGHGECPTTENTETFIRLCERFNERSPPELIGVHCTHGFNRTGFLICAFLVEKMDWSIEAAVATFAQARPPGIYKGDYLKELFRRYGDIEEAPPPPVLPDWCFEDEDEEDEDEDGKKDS

[3] = molecular target: T3, yeast RNA triphosphatase Cet1p (Saccharomyces cerevisiae, UniProt O13297); assay: Manganese-dependent ATP hydrolysis by Cet1p; assay type: biochemical; settings: truncated Cet1(201-549)p
T3 construct: His-tag; made in house; host or cells: Escherichia coli BL21(DE3)
Procedure: (§1) (FIG. 8A) Protein titration. Reaction mixtures (10 μl) containing 50 mM Tris HCl (pH 7.0), 5 mM DTT, 2 mM MnCl2, 1 mM [γ^32P]ATP, and either Cet1p, Cet1(201-549)p, or Cet1(246-549)p were incubated for 15 min at 30° C. Pi release is plotted as a function of input protein. (FIG. 8B) Kinetics. Reaction mixtures (100 μl) containing 50 mM Tris HCl (pH 7.0), 5 mM DTT, 2 mM MnCl2, 1 mM [γ^32P]ATP, and either 8, 16, or 32 nM Cet1p were incubated at 30° C. Aliquots (10 μl) were withdrawn at the times indicated and quenched immediately by the addition of […] of 5 M formic acid. Pi release is plotted as a function of time. (FIG. 8C) Hydrolysis of [α^32P]ATP. […] The products were analyzed by TLC. […] An otherwise identical reaction containing 1 mM [γ^32P]ATP was analyzed in parallel; Pi release (●). […]
(§2) The extent of ^32Pi relase from [Υ^32P]ATP during a 15 min reaction was proportional to the amount of input Cetlp protein (FIG. 8A). ^32Pi accumulated with time over 30 min; the rate of reaction varied linearly with Cetlp concentration (FIG. 8B). From a plot of initial rate versus enzyme concentration, a turnover number of 25 s^−1 was calculated. Cetlp catalyzed the quantitative conversion of [α^32P]ATP to [α^32P]ADP. […] No formation of [α^32P]AMP from [α^32P]ATP was detected, even after 20-45 min of incubation, by which time all of the nucleotide had been converted to ADP. […]

[4] = molecular target: T4, yeast RNA triphosphatase Cet1p (Saccharomyces cerevisiae, UniProt O13297); assay: Manganese-dependent ATP hydrolysis by Cet1p; assay type: biochemical; settings: full-length Cet1p, 2 mM MnCl2, pH 7.0, 30° C.
T4 construct: His-tag; made in house; host or cells: Escherichia coli BL21(DE3)
T4 sequence (O13297 1-549): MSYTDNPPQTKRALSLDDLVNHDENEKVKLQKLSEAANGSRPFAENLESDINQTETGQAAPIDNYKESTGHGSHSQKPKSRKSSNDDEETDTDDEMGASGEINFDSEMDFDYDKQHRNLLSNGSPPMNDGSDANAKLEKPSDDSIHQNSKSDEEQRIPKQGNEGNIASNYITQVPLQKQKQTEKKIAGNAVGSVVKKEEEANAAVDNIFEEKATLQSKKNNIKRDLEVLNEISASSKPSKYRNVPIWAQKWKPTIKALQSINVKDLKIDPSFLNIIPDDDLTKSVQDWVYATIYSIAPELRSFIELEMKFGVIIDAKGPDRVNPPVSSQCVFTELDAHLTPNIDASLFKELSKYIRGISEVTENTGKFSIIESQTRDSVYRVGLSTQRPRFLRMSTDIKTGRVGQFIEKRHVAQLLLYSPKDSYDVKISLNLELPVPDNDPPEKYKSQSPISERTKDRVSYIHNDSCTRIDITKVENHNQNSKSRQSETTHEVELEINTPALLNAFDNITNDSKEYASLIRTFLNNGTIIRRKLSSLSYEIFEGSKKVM
Procedure: as §1, §2

LEF-4 = LEF-4 (Autographa californica nuclear polyhedrosis virus, UniProt P41477); settings: read-out: Km for ATP; cited from earlier work
vaccinia triphosphatase = vaccinia triphosphatase (Vaccinia virus, UniProt P04298); settings: read-out: Km for ATP; cited from earlier work

T1 sequence (O43148 whole entry): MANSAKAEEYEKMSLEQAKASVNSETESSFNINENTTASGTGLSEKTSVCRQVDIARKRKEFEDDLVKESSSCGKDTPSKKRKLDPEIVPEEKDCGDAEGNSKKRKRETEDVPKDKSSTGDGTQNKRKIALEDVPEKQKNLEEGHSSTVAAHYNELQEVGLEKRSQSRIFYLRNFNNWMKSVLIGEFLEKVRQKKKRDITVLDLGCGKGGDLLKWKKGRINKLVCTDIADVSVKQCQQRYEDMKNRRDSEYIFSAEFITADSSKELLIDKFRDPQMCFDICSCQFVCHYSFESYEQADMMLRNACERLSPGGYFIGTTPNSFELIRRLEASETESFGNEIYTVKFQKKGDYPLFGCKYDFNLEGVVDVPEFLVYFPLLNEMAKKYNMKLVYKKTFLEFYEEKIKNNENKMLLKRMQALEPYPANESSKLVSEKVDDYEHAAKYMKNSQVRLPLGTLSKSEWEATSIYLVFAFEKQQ
Chain of LEF-4 (P41477 whole entry): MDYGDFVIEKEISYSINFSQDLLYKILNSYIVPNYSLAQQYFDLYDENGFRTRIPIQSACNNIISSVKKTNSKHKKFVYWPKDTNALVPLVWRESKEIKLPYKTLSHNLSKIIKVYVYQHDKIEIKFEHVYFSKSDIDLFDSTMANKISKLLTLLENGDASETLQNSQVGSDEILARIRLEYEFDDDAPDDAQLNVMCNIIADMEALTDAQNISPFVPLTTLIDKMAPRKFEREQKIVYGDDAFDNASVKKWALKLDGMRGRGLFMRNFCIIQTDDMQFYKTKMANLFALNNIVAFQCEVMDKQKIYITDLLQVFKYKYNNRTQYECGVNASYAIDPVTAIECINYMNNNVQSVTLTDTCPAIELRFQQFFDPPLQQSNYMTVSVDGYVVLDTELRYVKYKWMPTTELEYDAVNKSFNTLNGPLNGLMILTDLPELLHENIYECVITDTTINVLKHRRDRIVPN

Question: With `C[S+](CC[C@H](N)C(=O)[O-])C[C@H]1O[C@@H](n2cnc3c(N)ncnc32)[C@H](O)[C@@H]1O` (stereo partly shown) [AdoMet, S-adenosylmethionine] as the compound, how does the “AdoMet concentration giving half-maximal activity” value ([1]; peak glycerol gradient fraction of Hcm1p) read?
Answer: ~25 µM

Question: Which “inhibition of RNA triphosphatase activity” value [2] does the source give for `[Cl][Mn][Cl]` [MnCl2] here?
Answer: 75%

Question: What does the source list for `Nc1ncnc2c1ncn2[C@@H]1O[C@H](CSCC[C@H](N)C(=O)O)[C@@H](O)[C@H]1O` [AdoHcy, S-adenosylhomocysteine]?
Answer: effect on cap methylation (FIG. 9, lane 4) ([1]; 50 μM AdoMet plus 500 μM AdoHcy): partially inhibitory; reduction of cap methylation ([1]; 100 μM AdoHcy in the presence of 10 μM AdoMet): 80%

Question: For `Nc1ncnc2c1ncn2[C@@H]1O[C@H](COP(=O)(O)OP(=O)(O)OP(=O)(O)O)[C@@H](O)[C@H]1O` [ATP], which Km [3] is on record?
Answer: 3.3 µM

Question: And the Km [4]?
Answer: 2.8 µM

Question: And the Km (LEF-4)?
Answer: 43 µM

Question: And the Km (vaccinia triphosphatase)?
Answer: 800 µM

Question: With `[Cl-].[Cl-].[Mg+2]` [MgCl2] as the compound, how does the “effect of magnesium on cap methylation” value ([1]; 1 mM magnesium) read?
Answer: reduced by an order of magnitude

Question: And the “inhibition of RNA triphosphatase activity” value [2]?
Answer: 75%
